US7588885B2, “Use of biocistronic DNA constructs for identifying compounds that inhibit IRES-dependent translation” (Chung Yuan Christian University, priority 2004, dated 2009)
Values after ≈ are worked out from the molar mass of the structure shown.

Tests used:
[1] = tested on: CAP-dependent translation; assay: Bicistronic pGS-EV71 reporter assay in Cos-1 cells, β-gal activity (CAP-dependent translation); assay type: cell-based, African green monkey
Description: (§1) Plasmid PGS-EMCV is constructed by inserting into the plasmid pTriEx-4 (obtained from Novagene) template sequences of two reporter genes (cistrons), i.e., β-galactosidase (β-gal), and secreted human placental alkaline phosphatase (SEAP), with a promoter upstream of the first cistron (i.e., β-gal) and an EMCV-IRES sequence downstream of it, between the first cistron and the second cistron (i.e., SEAP). Plasmid pGS-EV71 and pGS-HCV are prepared in similar manner except an EV71-IRES sequence or a HCV-IRES sequence was used to replace the EMCV-IRES sequence.
(§2) The kidney cells from African green monkey, i.e., Cos-1 cells, were transfected with the bicistronic DNA constructs prepared according to Example 1. The method of transfection is well known in the art. […]
(§3) Reporter proteins activities, i.e., secreted Human Alkaline Phosphatase (SEAP) and β-galactosidase (β-gal), were measured with BD Great EscApe SEAP Detection kit (Cat. No. K2041-1, available from Clontech) and Luminescent β-gal Detection kit (Cat. No. K2048-1, available from Clontech), respectively, according to the manufacturer's instruction.

IRES of HCV = assay: Bicistronic pGS-HCV reporter assay (IRES of HCV); assay type: cell-based, HCV (hepatitis C virus); details: data not shown
Description: as §1, §2, §3

[2] = tested on: CAP-dependent translation; assay: Bicistronic pGS-EMCV reporter assay in Cos-1 cells, β-gal activity (CAP-dependent translation); assay type: cell-based, African green monkey
Description: as §1, §2, §3

IRES of EV71 = assay: cells; assay type: cell-based; details: for selective inhibition on IRES-dependent translation without affecting CAP-dependent translation (screening, FIG. 2): Cos-1 cells transfected with EV-71 IRES construct, amantadine 0.1 mg/ml, IFN-α 10 units, stavudine 0.05 mg/ml, 12 hrs
Description: as §1
(§4) The kidney cells from African green monkey, i.e., Cos-1 cells, were transfected with the bicistronic DNA constructs prepared according to Example 1. The method of transfection is well known in the art. Briefly, a transfecting stock solution was prepared as follows: 1) solution A: 1 μg of the bicistronic DNA constructs of Example 1 was dissolved in serum free culturing medium, with its final volume adjusted to be 50 μl; 2) solution B: 2 μl of lipofectAMINE 2000 (obtained from Invitrogen) was mixed with 50 μl of serum free culturing medium; 3) mixed solution A with solution B. Cos-1 cells (0.5−2×10^5/well, 24 wells) were first incubated with 500 μl of the serum free culturing medium for a period of 20 min, and then 102 μl of the transfecting stock solution prepared above was added. The transfected cells were then return to culture environment (37°C., 5% CO2). After 12 hrs, the culturing medium were replaced by a medium containing fetal bovine serum and antibiotics, the transfected cells were continued to culture for another 12 hrs before used in the following compound screening procedure.
The candidate compounds prepared according to the methods described above were dissolved in PBS, with stock concentration to be 10 mg/ml. These stock solutions were then diluted to proper ranges according to various screening conditions required.
as §3

IRES of EMCV = assay: Bicistronic pGS-EMCV reporter assay in Cos-1 cells, SEAP activity (IRES-dependent translation); assay type: cell-based
Description: as §1, §4
The candidate compounds prepared according to the methods described above were dissolved in PBS, with stock concentration to be 10 mg/ml. These stock solutions were then diluted to proper ranges according to various screening conditions required. […] Then, the identified tested compound can be used in preparation of a medicament for treating EV or EMCV infection.
as §3

EV-71 = EV-71 whole cell antiviral activity; assay type: cell-based; details: Enterovirus A, EV71

SMILES | effect on CAP-dependent translation activity ([1]; 0.25 mg/ml, pGS-EV71 cells (FIG. 3)) | effect on β-gal activities ([1]; pGS-EV71 transfected cells, 0.01 mg/ml to 0.25 mg/ml (FIG. 3A)) | effects on IRES of HCV (IRES of HCV) | effect on CAP-dependent translation activity ([2]; 0.25 mg/ml, pGS-EMCV cells (FIG. 4)) | effect on β-gal activities ([2]; pGS-EMCV transfected cells, 0.01 mg/ml to 0.25 mg/ml (FIG. 4A)) | selective inhibition on IRES-dependent translation without affecting CAP-dependent translation (screening, FIG. 2) (IRES of EV71) | IC50 (IRES of EV71; Enterovirus A, EV71, COS-1, read-out: calculated IC50 for inhibition of IRES-dependent translation of EV71) [µg/mL] | inhibition at 250 µg/mL (IRES of EV71; Enterovirus A, EV71, COS-1, read-out: inhibition of IRES-dependent translation activity) [%] | gene inhibition (EV71-IRES mediated gene expression) (IRES of EV71; dose of about 0.01 mg/ml (FIG. 5A)) [%] | gene inhibition (EV71-IRES mediated gene expression) (IRES of EV71; dose of about 0.25 mg/ml (FIG. 5A)) [%] | effect on SEAP activities (IRES of EV71; pGS-EV71 transfected cells, 0.01 mg/ml to 0.25 mg/ml (FIG. 3B)) | IC50 (IRES of EMCV; Cardiovirus A, COS-1, read-out: calculated IC50 for inhibition of IRES-dependent translation of EMCV) [µg/mL] | inhibition at 250 µg/mL (IRES of EMCV; Cardiovirus A, COS-1, read-out: inhibition of IRES-dependent translation activity) [%] | gene inhibition (EMCV-IRES mediated gene expression) (IRES of EMCV; dose of about 0.05 mg/ml (FIG. 5B)) [%] | gene inhibition (EMCV-IRES mediated gene expression) (IRES of EMCV; dose of about 0.25 mg/ml (FIG. 5B)) [%] | effect on SEAP activities (IRES of EMCV; pGS-EMCV transfected cells, 0.01 mg/ml to 0.25 mg/ml (FIG. 4B)) | IC50 (EV-71) [µg/mL]
NC12CC3CC(CC(C3)C1)C2 [amantadine, 1-Aminoadamantane] | relatively no effect | little or no effect | no effects | relatively no effect | little or no effect | selective inhibition on IRES-dependent translation without affecting CAP-dependent translation | ~55 (≈ 364 µM) | ~80 | 20 | 80 | inhibits SEAP activities | ~45 (≈ 298 µM) | ~80 | 20 | 80 | inhibits SEAP activities | ~8820 (≈ 58300 µM)
Cc1cn([C@H]2C=C[C@@H](CO)O2)c(=O)[nH]c1=O [stavudine] |  |  |  |  |  | only amantadine demonstrates selective inhibition |  |  |  |  |  |  |  |  |  |  | 
